# Data from patent US20060153906A1, “Pharmaceutical product for endonasal administration for treating central nervous system disease and disorders” (priority 2002, published 2006).
# Read-outs that look alike come from different tables or passages of the source.
# Tests used:
# rats = test system: rats
# Description: It should be emphasized that dopamine is not capable of penetrating the blood-brain barrier when administered conventionally.
# [1] = test system: patients with persistent or severe pain; test: Analgesic effect in patients with persistent or severe pain; type: in vivo, human
# Description: The enhancement of the therapeutic efficacy of the analgesic metamizol was investigated. A total of 5 volunteers participated in the observations. […] With all patients, the observations were made after six hours following the last administration of the pain therapy.
# rear paw of the rats = test: Randall-Selitto pain test, critical pressure (WKD) on the rear paw; type: in vivo, rat
# Description: The anti-nociceptive and/or analgesic effect of promedol (trimeperidine) was investigated as a result of the endonasal administration of the combination H2O2+promedol. The experiments were conducted with (raceless) sexually mature white male rats. In a pain test, the value of the critical pressure (WKD) on the rear paw of the rats was measured. The controlled pressure on the paw was generated with an analgesimeter from the company Ugo Basile in form of the Randall-Selitto test.
# Comparative results in relation to the composition of the invention include, on one hand, the intraperitoneal administration of promedol without the addition of oxygen anion radicals and, on the other hand, the intraperitoneal administration of promedol with addition of oxygen anion radicals by, on one hand, inhalation with the inhalation device described in DE 41 12 459 A1 and, on the other hand, by separate endonasal administration of a liquid hydrogen peroxide solution with a concentration of 10^−5 mole/l.
# The administration according to the invention consisted of a mixture of xanthine-oxidase/xanthine and promedol in doses of 5, 2, 1, and 0.1 mg/kg bodyweight of the animals.
# white mice = test: Soporific effect (sleep duration) after endonasal administration; type: in vivo, mouse; conditions: 60 mg/ml, n = 7
# Description: Investigated was the effect of phenobarbital in an endonasal administration on sexually mature white mice. Both the sedative and the soporific effect of the endonasal administration of phenobarbital without oxygen anion radicals were compared with the administration of the […]
# white male rats = test: Food motivation in partially food-deprived rats, endonasal administration; type: in vivo, rat
# Description: The experiments where carried out with white male rats. The animals of the control group 1 (n=13) received distilled water, the animals of the control group 2 (n=7) received a glucose solution, and the animals of the experimental group (n=9) received the composition H2O2+glucose. The duration of the observation was 17 days. During the first 11 days, the animals where controllably partially deprived of food (20 g dry mixed feed per animal). During the first week of the experiment, the initial motivation level for food was evaluated in the absence of the investigated preparation. The following parameters were investigated:
# Latent period (LP) between the approach to the food and presentation of the food in seconds;
# Time for consuming the food, in seconds (Tfut.);
# Number of interruptions during food uptake (Ubr.)
# After the second week, without changing the feed conditions, the preparation was introduced twice daily in a dose of 20 μl per animal, and all parameters where recorded. After the second week, the animals where fed ad libidum. No changes were made in the administration of the preparation and recordation of all parameters.
# The experiments where conducted as in Example 1.
# [2] = rats given haloperidol i/p (100 mg/kg), one-time endonasal, dopamine 0.125 mg/kg, L-arginine 10^-5 mole/l, H2O2 10^-6 mole/l
# [3] = after administration of preparation, endonasal twice daily 20 μl per animal
# [4] = before administration minus after administration (Table 4)
# [5] = before administration of preparation
structure (smiles),measurement,setting,value
"NCCc1ccc(O)c(O)c1 [Dopamine, dopamine]",Total spontaneous activity (Number of measurable movements),rats; [2],2 ± 1.7 ^##)
"OO [H2O2, hydrogen peroxide]",Total spontaneous activity (Number of measurable movements),rats; [2],3 ± 1.9 ^##)
Cc1c(N(C)CS(=O)(=O)O)c(=O)n(-c2ccccc2)n1C [metamizol],Analgesic efficacy in all patients,"[1]; endonasally, dose of 10 mg, without addition of oxygen anion radicals",not effective
same,Analgesic efficacy in all patients,"[1]; per os, dose of 500 mg",not effective
"CCC(=O)OC1(c2ccccc2)CC(C)N(C)CC1C (stereo not drawn) [Promedol, trimeperidine]","Lower dose of promedol giving prolonged and enhanced analgesic effect, endonasal form with oxygen anion radicals vs other administration methods",rear paw of the rats; endonasal composition compared to other administration methods,10-50 times
same,Nociception (critical pressure WKD),"rear paw of the rats; group II, 1.0 mg/kg i/p, 30 min after injection",6.2 ± 1.9
same,Nociception (critical pressure WKD),"rear paw of the rats; group II, 1.0 mg/kg i/p, 90 min after injection",5.4 ± 1.4
same,Nociception (critical pressure WKD),"rear paw of the rats; group II, 1.0 mg/kg i/p, 150 min after injection",5.0 ± 1.2
same,Nociception (critical pressure WKD),"rear paw of the rats; group II, 1.0 mg/kg i/p, 210 min after injection",4.8 ± 0.9
same,Initial value of nociception (critical pressure WKD),"rear paw of the rats; group II, 1.0 mg/kg i/p",6.7 ± 0.9
same,Nociception (critical pressure WKD),"rear paw of the rats; group III, 2.0 mg/kg i/p, 30 min after injection",10.1 ± 1.1*)
same,Nociception (critical pressure WKD),"rear paw of the rats; group III, 2.0 mg/kg i/p, 90 min after injection",9.3 ± 1.0*)
same,Nociception (critical pressure WKD),"rear paw of the rats; group III, 2.0 mg/kg i/p, 150 min after injection",8.0 ± 1.1
same,Nociception (critical pressure WKD),"rear paw of the rats; group III, 2.0 mg/kg i/p, 210 min after injection",7.5 ± 0.9
same,Initial value of nociception (critical pressure WKD),"rear paw of the rats; group III, 2.0 mg/kg i/p",7.8 ± 1.6
same,Nociception (critical pressure WKD),"rear paw of the rats; group IV, 5.0 mg/kg i/p, 30 min after injection",11.0 ± 1.0**)
same,Nociception (critical pressure WKD),"rear paw of the rats; group IV, 5.0 mg/kg i/p, 90 min after injection",9.8 ± 1.3**)
same,Nociception (critical pressure WKD),"rear paw of the rats; group IV, 5.0 mg/kg i/p, 150 min after injection",8.3 ± 1.7*)
same,Nociception (critical pressure WKD),"rear paw of the rats; group IV, 5.0 mg/kg i/p, 210 min after injection",6.7 ± 1.0
same,Initial value of nociception (critical pressure WKD),"rear paw of the rats; group IV, 5.0 mg/kg i/p",6.4 ± 0.7
same,Nociception (critical pressure WKD),"rear paw of the rats; group V, 1.0 mg/kg i/p + O2- inhalation, 30 min",8.1 ± 3.6*)
same,Nociception (critical pressure WKD),"rear paw of the rats; group V, 1.0 mg/kg i/p + O2- inhalation, 90 min",8.1 ± 2.3**)
same,Nociception (critical pressure WKD),"rear paw of the rats; group V, 1.0 mg/kg i/p + O2- inhalation, 150 min",9.6 ± 5.0**)
same,Nociception (critical pressure WKD),"rear paw of the rats; group V, 1.0 mg/kg i/p + O2- inhalation, 210 min",5.8 ± 2.3
same,Initial value of nociception (critical pressure WKD),"rear paw of the rats; group V, 1.0 mg/kg i/p + O2- inhalation",6.9 ± 1.6
same,Nociception (critical pressure WKD),"rear paw of the rats; group VI, 1.0 mg/kg i/p + separate endonasal H2O2-administration, 30 min",8.4 ± 2.8*)
same,Nociception (critical pressure WKD),"rear paw of the rats; group VI, 1.0 mg/kg i/p + separate endonasal H2O2-administration, 90 min",8.7 ± 2.0**)
same,Nociception (critical pressure WKD),"rear paw of the rats; group VI, 1.0 mg/kg i/p + separate endonasal H2O2-administration, 150 min",8.6 ± 2.7**)
same,Nociception (critical pressure WKD),"rear paw of the rats; group VI, 1.0 mg/kg i/p + separate endonasal H2O2-administration, 210 min",7.3 ± 2.2
same,Initial value of nociception (critical pressure WKD),"rear paw of the rats; group VI, 1.0 mg/kg i/p + separate endonasal H2O2-administration",7.1 ± 1.8
O=C(CCCN1CCC(O)(c2ccc(Cl)cc2)CC1)c1ccc(F)cc1 [Haloperidol],Total spontaneous activity (Number of measurable movements),"rats; haloperidol i/p alone (100 mg/kg bodyweight), unharmed control 35 ± 8",3 ± 3 ^##)
CCC1(c2ccccc2)C(=O)NC(=O)NC1=O [phenobarbital],Sleep duration,white mice,248.5 ± 22.2 min
N[C@@H](CCC(=O)O)C(=O)O [glutamic acid],"LP, latent period between approach to the food and presentation of the food",white male rats; [3],36.3 ± 4.1 s
same,"Tfut., time for consuming the food",white male rats; [3],491.2 ± 9.4 s
same,Change in LP,white male rats; [4],33.3 ± 13.1 s
same,Change in Tfut.,white male rats; [4],-77.2 ± 26.6 s
same,Change in Ubr.,white male rats; [4],0.4 ± 0.6 s
same,"LP, latent period between approach to the food and presentation of the food",white male rats; [5],69.9 ± 15.9 s
same,"Tfut., time for consuming the food",white male rats; [5],414.0 ± 30.6 s
